Assay results as given in patent publication US10231954B2, “Neurodegenerative therapies” (LYTIX BIOPHARMA AS, priority 2014, dated 2019).

Experiments:
Type in all cases: biochemical
[1] = biological target: HER4 (Homo sapiens, UniProt Q15303); test: Kinase profiling HER4; details: 100 micromolar inhibitor concentration, 100 is no change; for remaining activity at 100 µM: read-out: residual kinase activity, HER4
Source text: (§1) Any value less that 25 is considered to be highly significant inhibition.

[2] = biological target: Src (Homo sapiens, UniProt P12931); test: Kinase profiling Src; details: 100 micromolar inhibitor concentration, 100 is no change; for remaining activity at 100 µM: read-out: residual kinase activity, Src
Source text: as §1

[3] = biological target: PAK4 (Homo sapiens, UniProt O96013); test: Kinase profiling PAK4; details: 100 micromolar inhibitor concentration, 100 is no change; for remaining activity at 100 µM: read-out: residual kinase activity, PAK4
Source text: as §1

[4] = biological target: MKK1 (Homo sapiens, UniProt Q02750); test: Kinase profiling MKK1; details: 100 micromolar inhibitor concentration, 100 is no change; for remaining activity at 100 µM: read-out: residual kinase activity, MKK1
Source text: as §1

[5] = biological target: p38b MAPK (Homo sapiens, UniProt Q15759); test: Kinase profiling p38b MAPK; details: 100 micromolar inhibitor concentration, 100 is no change; for remaining activity at 100 µM: read-out: residual kinase activity, p38b MAPK
Source text: as §1

[6] = biological target: TrkA (Homo sapiens, UniProt P04629); test: Kinase profiling TrkA; details: 100 micromolar inhibitor concentration, 100 is no change; for remaining activity at 100 µM: read-out: residual kinase activity, TrkA
Source text: as §1

[7] = biological target: CAMK1 (Homo sapiens, UniProt Q14012); test: Kinase profiling CAMK1; details: 100 micromolar inhibitor concentration, 100 is no change; for remaining activity at 100 µM: read-out: residual kinase activity, CAMK1
Source text: as §1

[8] = biological target: NEK6 (Homo sapiens, UniProt Q9HC98); test: Kinase profiling NEK6; details: 100 micromolar inhibitor concentration, 100 is no change; for remaining activity at 100 µM: read-out: residual kinase activity, NEK6
Source text: as §1

[9] = biological target: ERK2 (Homo sapiens, UniProt P28482); test: Kinase profiling ERK2; details: 100 micromolar inhibitor concentration, 100 is no change; for remaining activity at 100 µM: read-out: residual kinase activity, ERK2
Source text: as §1

[10] = biological target: JNK1 (Homo sapiens, UniProt P45983); test: Kinase profiling JNK1; details: 100 micromolar inhibitor concentration, 100 is no change; for remaining activity at 100 µM: read-out: residual kinase activity, JNK1
Source text: as §1

[11] = biological target: PLK1 (Homo sapiens, UniProt P53350); test: Kinase profiling PLK1; details: 100 micromolar inhibitor concentration, 100 is no change; for remaining activity at 100 µM: read-out: residual kinase activity, PLK1
Source text: as §1

[12] = biological target: DYRK1A (Homo sapiens, UniProt Q13627); test: DYRK 1A assay (kinase profiling); details: 100 micromolar inhibitor concentration, 100 is no change; for remaining activity at 100 µM: read-out: residual kinase activity, DYRK1A
Procedure: Assays are stopped by addition of 5 μl of 0.5 M (3%) orthophosphoric acid and then harvested onto P81 Unifilter plates with a wash buffer of 50 mM orthophosphoric acid.
as §1

[13] = biological target: CHK2 (Homo sapiens, UniProt O96017); test: Kinase profiling CHK2; details: 100 micromolar inhibitor concentration, 100 is no change; for remaining activity at 100 µM: read-out: residual kinase activity, CHK2
Source text: as §1

[14] = test system: CK2; test: Kinase profiling CK2; details: 100 micromolar inhibitor concentration; 100 is no change
Source text: as §1

[15] = biological target: T1, PDK1 (Homo sapiens, UniProt O15530); test: Kinase profiling PDK1; details: 100 micromolar inhibitor concentration, 100 is no change; for remaining activity at 100 µM: read-out: residual kinase activity, PDK1
T1 sequence (O15530 1-556): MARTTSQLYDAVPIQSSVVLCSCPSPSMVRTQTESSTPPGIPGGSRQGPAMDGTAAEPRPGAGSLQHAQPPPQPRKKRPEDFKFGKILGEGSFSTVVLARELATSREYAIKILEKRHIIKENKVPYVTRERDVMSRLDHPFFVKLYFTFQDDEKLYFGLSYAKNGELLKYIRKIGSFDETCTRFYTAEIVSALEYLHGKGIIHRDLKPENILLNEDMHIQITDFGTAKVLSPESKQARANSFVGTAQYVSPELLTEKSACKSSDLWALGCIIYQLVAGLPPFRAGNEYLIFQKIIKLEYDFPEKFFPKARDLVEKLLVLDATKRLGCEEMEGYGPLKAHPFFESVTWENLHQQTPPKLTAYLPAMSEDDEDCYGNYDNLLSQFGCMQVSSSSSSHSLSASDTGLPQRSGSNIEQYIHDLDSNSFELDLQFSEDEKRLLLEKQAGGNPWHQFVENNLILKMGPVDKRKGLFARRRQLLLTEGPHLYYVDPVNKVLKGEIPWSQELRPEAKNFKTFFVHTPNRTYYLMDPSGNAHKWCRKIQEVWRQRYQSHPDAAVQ
Source text: as §1

[16] = biological target: T2, TTK (Homo sapiens, UniProt P33981); test: Kinase profiling TTK; details: 100 micromolar inhibitor concentration, 100 is no change; for remaining activity at 100 µM: read-out: residual kinase activity, TTK
T2 sequence (P33981 1-857): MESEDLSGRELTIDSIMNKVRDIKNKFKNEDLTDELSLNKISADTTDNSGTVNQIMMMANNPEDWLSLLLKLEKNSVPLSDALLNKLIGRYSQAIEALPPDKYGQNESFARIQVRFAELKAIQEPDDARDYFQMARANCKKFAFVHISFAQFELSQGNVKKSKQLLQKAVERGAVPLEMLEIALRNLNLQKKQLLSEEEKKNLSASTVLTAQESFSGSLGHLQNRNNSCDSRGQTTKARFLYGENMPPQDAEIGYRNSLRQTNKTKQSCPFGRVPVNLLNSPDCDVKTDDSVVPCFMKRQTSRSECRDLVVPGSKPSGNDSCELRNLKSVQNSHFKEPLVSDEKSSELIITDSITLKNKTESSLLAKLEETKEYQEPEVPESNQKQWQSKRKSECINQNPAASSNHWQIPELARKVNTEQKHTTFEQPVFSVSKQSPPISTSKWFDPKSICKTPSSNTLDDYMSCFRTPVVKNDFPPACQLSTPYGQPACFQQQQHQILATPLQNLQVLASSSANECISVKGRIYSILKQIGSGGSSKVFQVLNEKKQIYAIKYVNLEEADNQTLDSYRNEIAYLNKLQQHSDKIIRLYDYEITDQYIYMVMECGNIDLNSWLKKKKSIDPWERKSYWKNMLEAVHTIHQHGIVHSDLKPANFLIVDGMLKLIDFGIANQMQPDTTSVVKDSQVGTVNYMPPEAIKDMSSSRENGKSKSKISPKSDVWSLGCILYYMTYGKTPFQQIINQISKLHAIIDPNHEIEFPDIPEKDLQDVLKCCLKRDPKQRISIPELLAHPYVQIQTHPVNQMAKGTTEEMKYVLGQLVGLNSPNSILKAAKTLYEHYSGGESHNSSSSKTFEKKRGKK
Source text: as §1

[17] = biological target: RSK1 (Homo sapiens, UniProt Q15418); test: Kinase profiling RSK1; details: 100 micromolar inhibitor concentration, 100 is no change; for remaining activity at 100 µM: read-out: residual kinase activity, RSK1
Source text: as §1

[18] = biological target: RSK2 (Homo sapiens, UniProt P51812); test: Kinase profiling RSK2; details: 100 micromolar inhibitor concentration, 100 is no change; for remaining activity at 100 µM: read-out: residual kinase activity, RSK2
Source text: as §1

NEK6, sequence (Q9HC98 whole entry, species assumed): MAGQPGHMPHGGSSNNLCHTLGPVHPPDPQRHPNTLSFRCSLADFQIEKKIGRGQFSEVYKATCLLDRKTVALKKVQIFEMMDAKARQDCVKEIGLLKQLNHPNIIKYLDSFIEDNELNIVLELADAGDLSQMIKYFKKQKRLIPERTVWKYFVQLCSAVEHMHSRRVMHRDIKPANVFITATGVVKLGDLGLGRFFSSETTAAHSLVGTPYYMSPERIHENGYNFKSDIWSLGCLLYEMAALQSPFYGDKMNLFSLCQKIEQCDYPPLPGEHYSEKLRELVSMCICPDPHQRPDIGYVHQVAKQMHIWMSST
RSK2, sequence (P51812 whole entry, species assumed): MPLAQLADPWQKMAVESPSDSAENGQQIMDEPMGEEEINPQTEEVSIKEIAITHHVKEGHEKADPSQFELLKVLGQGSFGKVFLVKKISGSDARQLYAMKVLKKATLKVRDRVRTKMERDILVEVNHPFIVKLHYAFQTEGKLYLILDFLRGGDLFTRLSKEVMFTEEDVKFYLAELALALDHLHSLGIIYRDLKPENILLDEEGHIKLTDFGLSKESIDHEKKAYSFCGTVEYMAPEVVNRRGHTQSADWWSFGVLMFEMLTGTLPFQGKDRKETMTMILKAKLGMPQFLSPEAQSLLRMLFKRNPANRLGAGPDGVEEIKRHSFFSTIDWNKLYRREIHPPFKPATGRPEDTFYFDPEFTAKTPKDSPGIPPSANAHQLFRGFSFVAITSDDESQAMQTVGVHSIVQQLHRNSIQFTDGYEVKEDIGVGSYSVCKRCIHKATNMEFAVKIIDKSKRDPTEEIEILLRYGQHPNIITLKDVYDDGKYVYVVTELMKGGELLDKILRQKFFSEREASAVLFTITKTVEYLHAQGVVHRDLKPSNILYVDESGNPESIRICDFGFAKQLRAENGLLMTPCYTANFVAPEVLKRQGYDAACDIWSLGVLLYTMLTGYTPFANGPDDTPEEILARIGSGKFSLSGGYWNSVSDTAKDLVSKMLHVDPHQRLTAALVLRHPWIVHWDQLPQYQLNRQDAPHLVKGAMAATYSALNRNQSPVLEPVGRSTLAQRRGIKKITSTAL
MKK1, sequence (Q02750 whole entry, species assumed): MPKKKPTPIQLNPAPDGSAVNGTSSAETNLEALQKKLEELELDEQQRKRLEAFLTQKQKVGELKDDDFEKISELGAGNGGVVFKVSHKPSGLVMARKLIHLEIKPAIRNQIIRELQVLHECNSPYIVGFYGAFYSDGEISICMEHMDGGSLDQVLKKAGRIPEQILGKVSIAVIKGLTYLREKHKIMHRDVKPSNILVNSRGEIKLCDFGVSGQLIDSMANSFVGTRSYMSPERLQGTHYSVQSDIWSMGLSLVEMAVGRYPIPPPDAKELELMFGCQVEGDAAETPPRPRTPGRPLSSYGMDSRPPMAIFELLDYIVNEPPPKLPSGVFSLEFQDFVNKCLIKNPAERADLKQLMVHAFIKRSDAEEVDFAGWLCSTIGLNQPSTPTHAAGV
p38b MAPK, sequence (Q15759 whole entry): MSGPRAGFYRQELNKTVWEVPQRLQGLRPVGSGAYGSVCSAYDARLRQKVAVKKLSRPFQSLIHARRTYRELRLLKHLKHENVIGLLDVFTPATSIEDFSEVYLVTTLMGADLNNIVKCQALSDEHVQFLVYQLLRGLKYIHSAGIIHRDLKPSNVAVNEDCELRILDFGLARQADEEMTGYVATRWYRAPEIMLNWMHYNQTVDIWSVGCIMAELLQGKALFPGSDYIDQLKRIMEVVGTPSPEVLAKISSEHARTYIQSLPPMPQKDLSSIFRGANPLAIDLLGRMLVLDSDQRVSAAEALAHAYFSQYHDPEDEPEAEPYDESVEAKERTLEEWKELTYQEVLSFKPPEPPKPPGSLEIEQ
PAK4, sequence (O96013 whole entry, species assumed): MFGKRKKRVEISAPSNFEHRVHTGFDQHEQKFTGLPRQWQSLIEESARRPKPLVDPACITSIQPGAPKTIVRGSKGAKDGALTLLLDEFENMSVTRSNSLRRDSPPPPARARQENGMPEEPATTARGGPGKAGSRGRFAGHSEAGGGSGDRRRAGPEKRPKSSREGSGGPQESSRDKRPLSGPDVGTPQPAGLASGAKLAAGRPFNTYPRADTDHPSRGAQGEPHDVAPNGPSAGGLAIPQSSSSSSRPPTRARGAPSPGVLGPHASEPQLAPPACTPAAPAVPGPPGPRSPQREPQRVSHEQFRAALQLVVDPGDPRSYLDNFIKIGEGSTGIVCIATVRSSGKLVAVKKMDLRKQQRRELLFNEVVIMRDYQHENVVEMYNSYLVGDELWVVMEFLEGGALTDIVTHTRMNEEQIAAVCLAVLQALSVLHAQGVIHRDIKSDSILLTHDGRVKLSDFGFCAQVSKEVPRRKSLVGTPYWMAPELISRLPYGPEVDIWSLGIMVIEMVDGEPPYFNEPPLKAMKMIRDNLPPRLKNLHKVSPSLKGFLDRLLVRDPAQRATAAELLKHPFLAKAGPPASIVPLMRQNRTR
RSK1, sequence (Q15418 whole entry, species assumed): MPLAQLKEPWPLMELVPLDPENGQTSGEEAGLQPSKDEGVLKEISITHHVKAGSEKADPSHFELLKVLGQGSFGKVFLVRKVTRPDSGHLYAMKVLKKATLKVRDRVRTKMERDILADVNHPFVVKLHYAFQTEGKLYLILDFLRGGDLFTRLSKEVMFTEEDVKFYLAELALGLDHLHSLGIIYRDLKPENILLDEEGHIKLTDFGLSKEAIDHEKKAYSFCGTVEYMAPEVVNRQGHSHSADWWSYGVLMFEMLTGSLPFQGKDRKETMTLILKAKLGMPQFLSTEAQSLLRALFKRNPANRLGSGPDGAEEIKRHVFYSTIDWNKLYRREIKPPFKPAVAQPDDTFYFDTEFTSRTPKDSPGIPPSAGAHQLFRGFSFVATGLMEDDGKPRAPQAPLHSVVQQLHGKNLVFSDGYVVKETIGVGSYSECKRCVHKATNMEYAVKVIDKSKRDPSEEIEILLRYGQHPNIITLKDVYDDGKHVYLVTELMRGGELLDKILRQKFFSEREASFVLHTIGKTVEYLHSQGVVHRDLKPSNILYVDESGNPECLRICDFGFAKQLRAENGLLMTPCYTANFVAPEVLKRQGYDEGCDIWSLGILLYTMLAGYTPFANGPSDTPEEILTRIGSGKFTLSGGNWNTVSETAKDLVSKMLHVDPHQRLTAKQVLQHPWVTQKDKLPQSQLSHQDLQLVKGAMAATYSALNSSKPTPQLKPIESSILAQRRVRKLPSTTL
ERK2, sequence (P28482 whole entry, species assumed): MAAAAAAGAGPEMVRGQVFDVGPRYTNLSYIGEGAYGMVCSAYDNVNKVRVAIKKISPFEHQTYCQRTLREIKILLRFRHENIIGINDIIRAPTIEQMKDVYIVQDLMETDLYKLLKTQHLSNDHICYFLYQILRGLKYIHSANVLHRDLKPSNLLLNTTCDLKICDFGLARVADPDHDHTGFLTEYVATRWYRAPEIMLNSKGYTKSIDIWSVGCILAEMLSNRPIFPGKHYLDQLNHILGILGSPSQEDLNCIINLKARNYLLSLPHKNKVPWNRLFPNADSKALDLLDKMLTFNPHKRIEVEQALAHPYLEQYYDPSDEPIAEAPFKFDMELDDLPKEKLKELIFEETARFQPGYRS
TrkA, sequence (P04629 33-796, species assumed): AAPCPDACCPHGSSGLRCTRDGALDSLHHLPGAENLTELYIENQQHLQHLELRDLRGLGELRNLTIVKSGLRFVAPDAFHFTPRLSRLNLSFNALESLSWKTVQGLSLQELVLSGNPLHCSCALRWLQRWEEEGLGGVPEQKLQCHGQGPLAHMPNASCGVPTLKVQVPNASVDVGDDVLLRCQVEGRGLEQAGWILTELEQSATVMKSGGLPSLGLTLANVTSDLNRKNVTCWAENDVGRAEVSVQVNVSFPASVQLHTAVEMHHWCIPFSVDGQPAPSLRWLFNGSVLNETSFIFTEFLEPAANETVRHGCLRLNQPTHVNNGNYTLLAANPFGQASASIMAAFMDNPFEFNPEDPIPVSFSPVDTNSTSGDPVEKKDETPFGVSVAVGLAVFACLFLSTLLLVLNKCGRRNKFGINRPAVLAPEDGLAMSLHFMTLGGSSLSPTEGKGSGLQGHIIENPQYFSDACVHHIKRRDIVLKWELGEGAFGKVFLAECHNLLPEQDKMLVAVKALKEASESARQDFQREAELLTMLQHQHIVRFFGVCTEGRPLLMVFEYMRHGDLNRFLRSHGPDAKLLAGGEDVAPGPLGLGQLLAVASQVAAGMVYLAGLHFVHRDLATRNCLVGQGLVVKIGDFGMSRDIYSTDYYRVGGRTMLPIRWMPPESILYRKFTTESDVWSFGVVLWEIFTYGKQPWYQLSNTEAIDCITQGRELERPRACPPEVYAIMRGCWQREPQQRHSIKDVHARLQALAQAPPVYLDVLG
JNK1, sequence (P45983 whole entry, species assumed): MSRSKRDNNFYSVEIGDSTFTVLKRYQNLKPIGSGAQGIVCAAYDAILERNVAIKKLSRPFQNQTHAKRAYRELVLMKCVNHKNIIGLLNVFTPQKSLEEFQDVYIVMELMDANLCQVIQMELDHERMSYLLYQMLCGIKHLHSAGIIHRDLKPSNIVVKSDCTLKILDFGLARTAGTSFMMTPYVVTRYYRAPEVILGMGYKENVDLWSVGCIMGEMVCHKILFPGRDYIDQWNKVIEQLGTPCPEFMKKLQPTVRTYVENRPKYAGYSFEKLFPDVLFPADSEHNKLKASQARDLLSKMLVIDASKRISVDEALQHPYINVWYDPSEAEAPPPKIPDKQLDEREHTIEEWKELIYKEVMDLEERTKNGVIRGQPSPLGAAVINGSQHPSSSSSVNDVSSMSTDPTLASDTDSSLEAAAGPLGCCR

CC(=O)Nc1nc2ccccc2s1 [Compound 03-32]
residual kinase activity, HER4 [1]: 78 | residual kinase activity, Src [2]: 113 | residual kinase activity, PAK4 [3]: 75 | residual kinase activity, MKK1 [4]: 81 | residual kinase activity, p38b MAPK [5]: 107 | residual kinase activity, TrkA [6]: 77 | residual kinase activity, CAMK1 [7]: 99 | residual kinase activity, NEK6 [8]: 92 | residual kinase activity, ERK2 [9]: 149 | residual kinase activity, JNK1 [10]: 97 | residual kinase activity, PLK1 [11]: 62 | residual kinase activity, DYRK1A [12]: 43 | residual kinase activity, CHK2 [13]: 87 | residual kinase activity, CK2 [14]: 96 | residual kinase activity, PDK1 [15]: 96 | residual kinase activity, TTK [16]: 71 | residual kinase activity, RSK1 [17]: 86 | residual kinase activity, RSK2 [18]: 105

O=C(Nc1nc2cc(O)ccc2s1)c1cccnc1 [Compound 03-33]
residual kinase activity, HER4 [1]: 48 | residual kinase activity, Src [2]: 75 | residual kinase activity, PAK4 [3]: 92 | residual kinase activity, MKK1 [4]: 89 | residual kinase activity, p38b MAPK [5]: 87 | residual kinase activity, TrkA [6]: 51 | residual kinase activity, CAMK1 [7]: 104 | residual kinase activity, NEK6 [8]: 107 | residual kinase activity, ERK2 [9]: 107 | residual kinase activity, JNK1 [10]: 111 | residual kinase activity, PLK1 [11]: 80 | residual kinase activity, DYRK1A [12]: 29 | residual kinase activity, CHK2 [13]: 46 | residual kinase activity, CK2 [14]: 88 | residual kinase activity, PDK1 [15]: 100 | residual kinase activity, TTK [16]: 45 | residual kinase activity, RSK1 [17]: 73 | residual kinase activity, RSK2 [18]: 85

O=C(Nc1nc2ccc(O)cc2s1)c1ccccc1 [Compound 03-60]
residual kinase activity, HER4 [1]: 16 | residual kinase activity, Src [2]: 33 | residual kinase activity, PAK4 [3]: 35 | residual kinase activity, MKK1 [4]: 49 | residual kinase activity, p38b MAPK [5]: 76 | residual kinase activity, TrkA [6]: 23 | residual kinase activity, CAMK1 [7]: 22 | residual kinase activity, NEK6 [8]: 97 | residual kinase activity, ERK2 [9]: 82 | residual kinase activity, JNK1 [10]: 88 | residual kinase activity, PLK1 [11]: 74 | residual kinase activity, DYRK1A [12]: 2 | residual kinase activity, CHK2 [13]: 5 | residual kinase activity, CK2 [14]: 16 | residual kinase activity, PDK1 [15]: 98 | residual kinase activity, TTK [16]: 19 | residual kinase activity, RSK1 [17]: 28 | residual kinase activity, RSK2 [18]: 34

CC(=O)Nc1nc2cc(C(F)(F)F)ccc2s1 [Compound 03-73]
remaining activity at 100 µM [1]: 110% | remaining activity at 100 µM [2]: 74% | remaining activity at 100 µM [3]: 71% | remaining activity at 100 µM [4]: 96% | remaining activity at 100 µM [5]: 97% | remaining activity at 100 µM [6]: 74% | remaining activity at 100 µM [7]: 89% | remaining activity at 100 µM [8]: 119% | remaining activity at 100 µM [9]: 108% | remaining activity at 100 µM [10]: 120% | remaining activity at 100 µM [11]: 91% | remaining activity at 100 µM [12]: 22% | remaining activity at 100 µM [13]: 78% | residual kinase activity, CK2 [14]: 105 | remaining activity at 100 µM [15]: 105% | remaining activity at 100 µM [16]: 86% | remaining activity at 100 µM [17]: 89% | remaining activity at 100 µM [18]: 83%

CC(=O)Nc1nc2cc(C)ccc2s1 [Compound 03-76]
residual kinase activity, HER4 [1]: 85 | residual kinase activity, Src [2]: 79 | residual kinase activity, PAK4 [3]: 101 | residual kinase activity, MKK1 [4]: 73 | residual kinase activity, p38b MAPK [5]: 83 | residual kinase activity, TrkA [6]: 56 | residual kinase activity, CAMK1 [7]: 90 | residual kinase activity, NEK6 [8]: 107 | residual kinase activity, ERK2 [9]: 96 | residual kinase activity, JNK1 [10]: 97 | residual kinase activity, PLK1 [11]: 90 | residual kinase activity, DYRK1A [12]: 23 | residual kinase activity, CHK2 [13]: 65 | residual kinase activity, CK2 [14]: 75 | residual kinase activity, PDK1 [15]: 93 | residual kinase activity, TTK [16]: 49 | residual kinase activity, RSK1 [17]: 78 | residual kinase activity, RSK2 [18]: 96

CC(=O)Nc1nc2cc(F)ccc2s1 [Compound 03-77]
remaining activity at 100 µM [1]: 92% | remaining activity at 100 µM [2]: 80% | remaining activity at 100 µM [3]: 97% | remaining activity at 100 µM [4]: 87% | remaining activity at 100 µM [5]: 79% | remaining activity at 100 µM [6]: 59% | remaining activity at 100 µM [7]: 106% | remaining activity at 100 µM [8]: 96% | remaining activity at 100 µM [9]: 99% | remaining activity at 100 µM [10]: 80% | remaining activity at 100 µM [11]: 78% | remaining activity at 100 µM [12]: 7% | remaining activity at 100 µM [13]: 63% | residual kinase activity, CK2 [14]: 81 | remaining activity at 100 µM [15]: 91% | remaining activity at 100 µM [16]: 64% | remaining activity at 100 µM [17]: 72% | remaining activity at 100 µM [18]: 83%

O=C(Nc1nc2ccc(O)cc2s1)c1ccncc1 [Compound 08-42]
residual kinase activity, HER4 [1]: 40 | residual kinase activity, Src [2]: 62 | residual kinase activity, PAK4 [3]: 69 | residual kinase activity, MKK1 [4]: 87 | residual kinase activity, p38b MAPK [5]: 86 | residual kinase activity, TrkA [6]: 81 | residual kinase activity, CAMK1 [7]: 68 | residual kinase activity, NEK6 [8]: 75 | residual kinase activity, ERK2 [9]: 73 | residual kinase activity, JNK1 [10]: 99 | residual kinase activity, PLK1 [11]: 74 | residual kinase activity, DYRK1A [12]: 15 | residual kinase activity, CHK2 [13]: 22 | residual kinase activity, CK2 [14]: 50 | residual kinase activity, PDK1 [15]: 83 | residual kinase activity, TTK [16]: 32 | residual kinase activity, RSK1 [17]: 47 | residual kinase activity, RSK2 [18]: 62
